These are literature values, as cited in US20110262540A1, “Solid Pharmaceutical Composition Comprising Exemestane” (ARROW INTERNATIONAL LIMITED, priority 2008, published 2011).

`C=C1C[C@@H]2[C@H](CC[C@]3(C)C(=O)CC[C@@H]23)[C@@]2(C)C=CC(=O)C=C12` [Exemestane, 6-methylenandrosta-1,4-diene-3,17-dione]: the Solubility in water result is listed as “practically insoluble in water”.
